In PubChem BioAssay (NCI) one finds GI50 and TGI data, which are given here for 18 compounds.

What all share (test): growth of human tumour cells (NCI), 48 h
The subject of assay [1] is NCI-H23 lung.
The subject of assay [2] is HCT-15 colon.
The subject of assay [3] is HL-60(TB) leukemia.
Assay [4] relates to MDA-MB-231 breast.

Where “and” joins values, the source holds several entries; their conditions need not be identical. Identical values can stand only once.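 Five compound concentrations were applied to cells in 96-well plates for 48 hours; endpoints were derived by simple linear interpolation of the resulting dose-response curve. GI50 = concentration required for 50% inhibition of growth. TGI is the concentration that stops growth completely.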 Where only a bound is given, the exact number is not on record here.

As for `CN1C[C@@H]2Cn3c(c(C4=C(c5cn(C)c6ccccc56)C(=O)NC4=O)c4ccccc43)C[C@H]2C1`, the GI50 in assay [1] was 4.96 µM and 6.11 µM; in assay [2], 4.41 µM and 3.58 µM; in assay [3], 5.48 µM and 3.63 µM; in assay [4], 4.37 µM and 4.1 µM. Moreover, the TGI in assay [1] is 10.7 µM and 15.3 µM; in assay [2], 13.1 µM and 10.9 µM; in assay [3], 10.5 µM and 8.53 µM; in assay [4], 8.85 µM and 9.22 µM.
In the case of `Nc1cc(S(N)(=O)=O)ccc1SSc1ccc(S(N)(=O)=O)cc1N`, the TGI in assay [1], in assay [2], in assay [3] and in assay [4] was above 100 µM each time.
For the compound `CN(C)CCSCCO`, the TGI in assay [1], in assay [2], in assay [3] and in assay [4] was above 100 µM throughout.
With `Cc1cc(C)c(S(=O)(=O)N(CCc2cccc(Br)c2)Cc2ccc(-c3cccc(S(C)(=O)=O)c3)cc2)c(C)c1`, the GI50 in assay [1], in assay [2], in assay [3] and in assay [4] was above 100 µM each time. Also, the TGI in assay [1], in assay [2], in assay [3] and in assay [4] was above 100 µM throughout.
On to `Clc1ccc(CNc2nccc(-c3cnn4ncccc34)n2)cc1`, for which the GI50 in assay [1] is 6.74 µM; in assay [2], 8.5 µM; in assay [3] it was 8.69 µM; in assay [4], 8.5 µM. Further, the TGI in assay [1] was 22.8 µM; in assay [2] it was above 25 µM; in assay [3], above 22.3 µM; in assay [4], above 25 µM.
For the compound `COC(=O)[C@H](C)NC(=O)[C@@H](OC)[C@@H]1Cc2cc3cc(OC4CC(OC5CC(O)C(O)C(C)O5)C(O)C(C)O4)c(C)c(O)c3c(O)c2C(=O)[C@H]1OC1CC(OC2CC(OC3CC(C)(O)C(O)C(C)O3)C(O)C(C)O2)C(O)C(C)O1` (some centres not stated), the GI50 in assay [1] was 0.0939 µM; in assay [2] it was 0.41 µM; in assay [3], 0.894 µM; in assay [4], 0.247 µM. Further, the TGI in assay [1] is above 50 µM; in assay [2], above 50 µM; in assay [3], 10.6 µM; in assay [4], above 50 µM.
Consider `CSc1ccc(SC2c3ccc(C)cc3Oc3nc(N)c(C#N)c(N)c32)cc1` (configuration not stated), for which the GI50 in assay [1] is 1.69 µM; in assay [2] it was 1.65 µM; in assay [3], 2.12 µM; in assay [4], 1.6 µM. Also, the TGI came to 3.22 µM in assay [1], 3.18 µM in assay [2], 4.42 µM in assay [3] and 3 µM in assay [4].
Turning to `Fc1ccc2c(c1)C1=C(CO2)C(c2ccc(Cl)cc2)NC(=S)N1` (configuration not stated), the GI50 was 26 µM in assay [1], 92.6 µM in assay [2], 31.6 µM in assay [3] and 18.8 µM in assay [4]. The TGI is 58.5 µM in assay [1], above 100 µM in assay [2], above 100 µM in assay [3] and 55.7 µM in assay [4].
Turning to `c1ccc(B2OCC(C3OB(c4ccccc4)OC4COB(c5ccccc5)OC43)O2)cc1` (configuration not stated), the TGI in assay [1], in assay [2] and in assay [4] was above 100 µM each time.
Turning to `CCC1(NC(=O)c2cc(F)c(F)c(F)c2F)C(=O)NC(=O)N(C(C)C)C1=O` (configuration not stated), the GI50 in assay [1] was 16.5 µM; in assay [2] it was 8.05 µM; in assay [3] it was 3.82 µM; in assay [4], 19.3 µM. Besides, the TGI in assay [1] is 61.5 µM; in assay [2], above 100 µM; in assay [3], 24.9 µM; in assay [4], 48.7 µM.
In the case of `CC1(C)CC([P+](c2ccccc2)(c2ccccc2)c2ccccc2)=NN1`, the GI50 in assay [1] was 4.28 µM; in assay [2], above 100 µM; in assay [3] it was 1.91 µM; in assay [4], 13.7 µM. Besides, the TGI in assay [1] is above 100 µM; in assay [2], above 100 µM; in assay [3], 9.19 µM; in assay [4] it was above 100 µM.
In the case of `CN(CC(=O)O)Cc1oc(CO)cc(=O)c1O`, the TGI in assay [1] is above 100 µM; in assay [2], above 100 µM; in assay [3], 76.5 µM; in assay [4], above 100 µM.
Turning to `Cc1cnccc1N=Nc1ccc(N(C)C)cc1`, the TGI in assay [1] was 68.6 µM; in assay [2], above 100 µM; in assay [3], above 100 µM; in assay [4], 70.6 µM.
`FC(F)(F)c1cccc2c(SCCc3n[nH]c(=S)o3)ccnc12`: the GI50 was 40 µM in assay [1], 66.2 µM in assay [2], 67.8 µM in assay [3] and 43.1 µM in assay [4]. The TGI in assay [1], in assay [2], in assay [3] and in assay [4] was above 100 µM each time.
On to `N#C/C(=C\c1c(-c2ccccc2)[nH]c2ccccc12)C(=O)c1ccccc1`, for which the results for the GI50 in assay [1], in assay [2] and in assay [4] were 16 µM, 3.53 µM and 13.2 µM, respectively. Moreover, the TGI in assay [1], in assay [2] and in assay [4] was above 100 µM each time.
As for `Nc1c(C(=O)N/N=C/c2ccc(-c3cc(Cl)c(Cl)cc3Cl)o2)cnn1-c1ccnc2c(C(F)(F)F)cccc12`, the GI50 was 3.32 µM in assay [1], 3.43 µM in assay [2], 3.18 µM in assay [3] and 3.83 µM in assay [4]. The TGI in assay [1] was 47.2 µM; in assay [2], above 100 µM; in assay [3] it was above 100 µM; in assay [4] it was 22 µM.
With `Cc1cc(N(CCCNc2ccnc3cc(Cl)ccc23)Cc2ccc3c(c2)OCO3)nc(N2CCCCC2)n1`, the figures for the GI50 in assay [1], in assay [2] and in assay [4] were 2.67 µM, 1.42 µM and 1.88 µM, respectively. Further, the TGI in assay [1] was determined as 13.3 µM; in assay [2] it was 3.05 µM; in assay [4] it was 4.06 µM.
For the compound `C=C(CNC(=O)c1ccccc1)c1ccc(C(=O)Nc2ccccc2N)cc1`, the GI50 in assay [1] was 18.7 µM; in assay [2], 8.14 µM; in assay [4], 5.56 µM. In addition, the TGI in assay [1] was above 100 µM; in assay [2], above 100 µM; in assay [4] it was 45.1 µM.
